Measured values reported in patent publication US20250073165A1, “OLANZAPINE, COMPOSITIONS THEREOF AND METHODS OF USE THEREOF” (Teva Pharmaceuticals International GmbH, priority 2022, published 2025).

Key:
[1] = Flow function by FT4 Powder Rheometer, shear test 9 kPa; format: physicochemical; settings: 9 kPa shear test, 1 ml cell
Procedure: The flow function (FF) was determined by using FT4 Powder Rheometer, Freeman FT4 instrument, and standard Freeman shear test −9 kPa (using small cell 1 ml), according to the procedure below: • Compact to 9 kPa for 60 s • Pre shear hold 7 kPa for 16 s • Shear test at 7 kPa (Shear at 18°/min for 10°, auto detected peak torque yes) • Pre shear hold 6 kPa for 16 s • Shear test at 6 kPa (Shear at 18°/min for 10°, auto detected peak torque yes) • Pre shear hold 5 kPa for 16 s • Shear test at 5 kPa (Shear at 18°/min for 10°, auto detected peak torque yes) • Pre shear hold 4 kPa for 16 s • Shear test at 4 kPa (Shear at 18°/min for 10°, auto detected peak torque yes) • Pre shear hold 3 kPa for 16 s • Shear test at 3 kPa (Shear at 18°/min for 10°, auto detected peak torque yes)

[2] = Bulk/tapped density, Ph. Eur. 2.9.34 Method 1, ERWEKA SVM 122; format: physicochemical; settings: Table 1
Procedure: Bulk density/tapped density were determined by European Pharmacopoeia 2.9.34. Method 1 (https://www.drugfuture.com/Pharmacopoeia/EP7/DATA/20934E.PDF; PDF downloaded Nov. 14, 2021).
The bulk and tapped densities were determined using the Tapped Density Tester SVM 122 from ERWEKA, equipped with a 100 mL glass cylinder. Approximately 30 g of the powder was carefully poured into the 100 mL measuring cylinder with a funnel. Bulk density was calculated by dividing the amount of powder (in gram) by the measured volume (mL). The tapped density was then determined as follows:
If the difference between V500 and V1250 was bigger than 2 mL, taps were repeated: i.e. tapped another 1250× and repeated until difference was below 2 mL. • Bulk density=sample weight/volume before tapping. • Tapped density=weight/volume after tapping. • Calculation: […]

[3] = Particle size distribution (PSD) by laser diffraction, Malvern Mastersizer 2000; format: physicochemical
Procedure: (§1) For the purposes herein, particle size distribution (PSD) is determined as the percent volume, i.e. D(90) and D(3,2) and was measured by laser diffraction using a Malvern Mastersizer 2000 equipped with a Hydro 2000 S dispersion unit.
(§2) The measurements were performed in saturated water dispersion medium (refractive index=[…] (general purpose)). The water was saturated with olanzapine to prevent dissolution of the sample while measuring. Dispersion medium was prepared by adding about 3 gm olanzapine to 1 liter water, sonicating in an ultrasound bath for 30 min and filtering (0.22-0.45 μm). The samples were added as concentrated suspension under stirring until an obscuration rate of 10-20% was reached. The results were values arising from ten measurement cycles with a recirculation time (after sonification) of 30 sec.
(§3) Sample preparation: Samples were prepared as concentrated suspensions. About 50-100 mg of the olanzapine sample was added with a spatula to a small sized glass beaker and several drops of saturated water dispersion medium was added. A paste was obtained by mild mixing, and an additional quantity (1 ml) of saturated water dispersion medium was added in order to obtain a concentrated homogeneous suspension.

[4] = PSD of bulk API compared to PSD of API in vial after dry heat sterilization; format: physicochemical; settings: for D(3,2) / D(90): Table 3, bulk API or API in vial after dry heat sterilization 150-160° C., two hours, per sample name
Procedure: as §1, §2, §3
Closed and crimped vials filled with API were terminally sterilized at 150-160° C. using dry heat for two hours in dry heat oven SP-470 by Kambič (Slovenia). Additional methods of terminal sterilization include radiation including for example, gamma radiation, X-ray, electron beam and the like with similar results. Alternatively, the API may be prepared aseptically
The manufacturing process for the final drug product includes a terminal sterilization step, and specifically the quality of the bulk API should not be affected by sterilization. Therefore, after the dry heat sterilization, samples of API in vials filled with two batches (with low PSD) were analyzed for PSD and compared to starting API material.

[5] = background statement; cited from earlier work
[6] = Table 4, listed as Olanzapine S2-920
[7] = Table 4, listed as Olanzapine M1-010
[8] = Table 4, listed as Olanzapine S1-920
[9] = Table 4, listed as Olanzapine M7-121
[10] = Table 4, listed as Olanzapine S3-020
[11] = Table 4, listed as Olanzapine S1-220
[12] = Table 4, listed as Olanzapine S3-221
[13] = Table 4, listed as Olanzapine M6-020

Row | SMILES | Flow function [1] | TD (tapped density) [2] [g/mL] | D(3,2) ([3]; Table 1, bulk API batch) [μm] | D(90) ([3]; Table 1, bulk API batch) [μm] | D(3,2) [4] [μm] | D(90) [4] [μm] | also measured
1 | Cc1cc2c(s1)Nc1ccccc1N=C2N1CCN(C)CC1 [Batch S2-920, 2-methyl-4-(4-methyl-1-piperazinyl)-10H-thieno[2,3-b][1,5]benzodiazepine] | 2.0 | 0.45 | 7.6 | 38 | – | – | D(90) [3, 6]: 38 μm; D(100) [3, 6]: 136 μm
2 | Cc1cc2c(s1)Nc1ccccc1N=C2N1CCN(C)CC1 [Olanzapine S4-221, 2-methyl-4-(4-methyl-1-piperazinyl)-10H-thieno[2,3-b][1,5]benzodiazepine] | – | – | – | – | – | – | D(90) ([3]; Table 4): 26 μm; D(100) ([3]; Table 4): 110 μm
3 | Cc1cc2c(s1)Nc1ccccc1N=C2N1CCN(C)CC1 [Batch M1-010, 2-methyl-4-(4-methyl-1-piperazinyl)-10H-thieno[2,3-b][1,5]benzodiazepine] | 1.4 | 0.37 | 4.2 | 13 | 4.7 | 14 | D(90) [3, 7]: 14 μm; D(100) [3, 7]: 42 μm
4 | Cc1cc2c(s1)Nc1ccccc1N=C2N1CCN(C)CC1 [Batch M2-121, 2-methyl-4-(4-methyl-1-piperazinyl)-10H-thieno[2,3-b][1,5]benzodiazepine] | 1.5 | 0.39 | 6.4 | 30 | 7.5 | 40 | –
5 | Cc1cc2c(s1)Nc1ccccc1N=C2N1CCN(C)CC1 [Olanzapine S2-121, 2-methyl-4-(4-methyl-1-piperazinyl)-10H-thieno[2,3-b][1,5]benzodiazepine] | – | – | – | – | – | – | D(90) ([3]; Table 4): 27 μm; D(100) ([3]; Table 4): 196 μm
6 | Cc1cc2c(s1)Nc1ccccc1N=C2N1CCN(C)CC1 [Batch S1-920, 2-methyl-4-(4-methyl-1-piperazinyl)-10H-thieno[2,3-b][1,5]benzodiazepine] | 1.2 | 0.29 | 4.1 | 11 | 3.9 | 11 | D(90) [3, 8]: 11 μm; D(100) [3, 8]: 21 μm
7 | Cc1cc2c(s1)Nc1ccccc1N=C2N1CCN(C)CC1 [Batch M7-121, 2-methyl-4-(4-methyl-1-piperazinyl)-10H-thieno[2,3-b][1,5]benzodiazepine] | 2.1 | 0.50 | 8.3 | 42 | – | – | D(90) [3, 9]: 40 μm; D(100) [3, 9]: 205 μm
8 | Cc1cc2c(s1)Nc1ccccc1N=C2N1CCN(C)CC1 [Batch S3-020, 2-methyl-4-(4-methyl-1-piperazinyl)-10H-thieno[2,3-b][1,5]benzodiazepine] | 1.3 | 0.28 | 5.4 | 17 | 5.2 | 16 | D(90) [3, 10]: 16 μm; D(100) [3, 10]: 90 μm; PSD curves before and after sterilization ([4]; FIG. 4B): highly similar
9 | Cc1cc2c(s1)Nc1ccccc1N=C2N1CCN(C)CC1 [Batch S1-220, 2-methyl-4-(4-methyl-1-piperazinyl)-10H-thieno[2,3-b][1,5]benzodiazepine] | 1.5 | 0.39 | 6.1 | 26 | 5.8 | 29 | D(90) [3, 11]: 29 μm; D(100) [3, 11]: 142 μm
10 | Cc1cc2c(s1)Nc1ccccc1N=C2N1CCN(C)CC1 [Batch S3-221, 2-methyl-4-(4-methyl-1-piperazinyl)-10H-thieno[2,3-b][1,5]benzodiazepine] | 1.8 | 0.40 | 6.4 | 26 | – | – | D(90) [3, 12]: 24 μm; D(100) [3, 12]: 61 μm
11 | Cc1cc2c(s1)Nc1ccccc1N=C2N1CCN(C)CC1 [Olanzapine, 2-methyl-4-(4-methyl-1-piperazinyl)-10H-thieno[2,3-b][1,5]benzodiazepine] | – | – | – | – | – | – | Water solubility [5]: poor
12 | Cc1cc2c(s1)Nc1ccccc1N=C2N1CCN(C)CC1 [Batch M6-020, 2-methyl-4-(4-methyl-1-piperazinyl)-10H-thieno[2,3-b][1,5]benzodiazepine] | 2.0 | 0.41 | 6.6 | 24 | 6.5 | 24 | D(90) [3, 13]: 24 μm; D(100) [3, 13]: 205 μm
